Drawing on patent US9630977B2, “Cephalosporin derivatives and pharmaceutical compositions thereof” (Legochem Biosciences, Inc., priority 2011, dated 2017), this text covers MIC90 for 5 molecules.

In brackets after ≈: the same amount, converted by molar mass. Where two headings read alike, the source gives them in different places.

What all share (assay): In vitro antibacterial activity test (broth microdilution)
Type in all cases: cell-based

One experiment has as its system K. pneumoniae β14. On the procedure:
(§1) To evaluate antibacterial activity of each of the compounds of Examples 1 to 68, in vitro antibacterial activity test was performed.
(§2) The in vitro antibacterial activity was evaluated by measuring MIC90 (ug/mL) of each of the compounds of Examples 1 to 68, which is defined as the lowest concentration of an antibiotic that will inhibit the visible growth of 90% of microorganisms after incubation as compared with a control group to which the antibiotic is not treated. MIC90 values were measured by the broth microdilution method developed by the Clinical and Laboratory Standards Institute (CLSI) (see CLSI M7-A5, Methods for Dilution Antimicrobial Susceptibility Test for Bacteria that Grow Aerobically-Fifth Edition (2000): CLSI, Villanova, Pa.).
(§3) In vitro antibacterial activity was measured with respect to the following 19 clinical isolates: M. catarrhalis; P. aeruginosa (5 strains); K. pneumoniae (6 strains); A. baumannii (3 strains); E. coli (2 strains); A. calcoaceticus; and E. cloacae.
(§4) Test compounds each (the cephalosporin derivative compounds prepared in Examples 1 to 68) were dissolved in DMSO at the concentration of 10,240 ug/mL, were diluted by two fold with DMSO, and then were diluted by twenty fold with sterilized distilled water. The final concentration in the antibacterial activity test was in the range of […] to 128 ug/mL, and the final concentration of DMSO used as an adjuvant was 2.5% (V/V).

The test system of the next experiment is E. coli AG100. The protocol:
as §1, §2, §3, §4

Experiment [1] concerns A. calcoaceticus ATCC15473. The protocol: as §1, §2, §3, §4
In the next experiment the test system is P. aeruginosa 1912E. On the procedure: as §1, §2, §3, §4
A further experiment concerns A. baumannii 49. The protocol:
as §1, §2, §3, §4

For another experiment, the system named is E. coli β4. On the procedure: as §1, §2, §3, §4
For the next experiment, the system named is A. baumannii 52. The protocol: as §1, §2, §3, §4
The test system of another experiment is P. aeruginosa 37. The protocol:
as §1, §2, §3, §4

The test system of the next experiment is P. aeruginosa 6065Y. The protocol:
as §1, §2, §3, §4

The next experiment has as its system K. pneumoniae 2011E. The protocol: as §1, §2, §3, §4
The test system of a further experiment is E. cloacae β19. The protocol: as §1, §2, §3, §4
The next experiment relates to P. aeruginosa 40. On the procedure:
as §1, §2, §3, §4

Another experiment has as its system P. aeruginosa 43. The following applies: Pseudomonas aeruginosa. The protocol:
as §1, §2, §3, §4

In the next experiment the test system is A. baumannii 46. On the procedure: as §1, §2, §3, §4
Where [2] appears, read: Klebsiella pneumoniae, read-out: MIC90.
[3] abbreviates: Escherichia coli, AG100, E. coli AG100, read-out: MIC90.
The mark [4] stands for this setting: Acinetobacter calcoaceticus, A. calcoaceticus ATCC15473, read-out: MIC90.
Setting [5] is: Pseudomonas aeruginosa, 1912E, read-out: MIC90.
[6] abbreviates: Acinetobacter baumannii, A. baumannii 49, read-out: MIC90.
[7] abbreviates: Escherichia coli, read-out: MIC90.
[8] abbreviates: Acinetobacter baumannii, A. baumannii 52, read-out: MIC90.
The mark [9] stands for this setting: Pseudomonas aeruginosa, 37, P. aeruginosa 37, read-out: MIC90.
The mark [10] stands for this setting: Pseudomonas aeruginosa, read-out: MIC90.
The mark [11] stands for this setting: Klebsiella pneumoniae, 2011E, K. pneumoniae 2011E, read-out: MIC90.
The mark [12] stands for this setting: Enterobacter cloacae, read-out: MIC90.
Setting [13] is: Pseudomonas aeruginosa, 40, P. aeruginosa 40, read-out: MIC90.
The mark [14] stands for this setting: Acinetobacter baumannii, A. baumannii 46, read-out: MIC90.
Setting [15] is: Acinetobacter calcoaceticus, ATCC15473, A. calcoaceticus ATCC15473.
The mark [16] stands for this setting: Acinetobacter baumannii, 49, A. baumannii 49.
Setting [17] is: Pseudomonas aeruginosa, 37, P. aeruginosa 37.
Where [18] appears, read: Acinetobacter baumannii, 46, A. baumannii 46.

In the case of `CNc1nc[n+](CC2=C(C(=O)[O-])N3C(=O)[C@@H](NC(=O)/C(=N\OC(C)(C)C(=O)O)c4csc(N)n4)C3SC2)cc1N` (some centres unmarked) [Compound 39], the MIC90 (as a rule, an inhibitory concentration at the 90% level, which refers to growth in some studies and to a panel of isolates in others) with K. pneumoniae β14 (setting [2]) was 8 µg/mL (≈ 13.5 µM); in the experiment with E. coli AG100 (setting [3]), 1 µg/mL (≈ 1.69 µM); in experiment [1] (setting [4]), 8 µg/mL (≈ 13.5 µM); in the experiment on P. aeruginosa 1912E (setting [5]), 8 µg/mL (≈ 13.5 µM); in the experiment on A. baumannii 49 (setting [6]), over 128 µg/mL; with E. coli β4 (setting [7]), 16 µg/mL (≈ 27 µM). The MIC90 with A. baumannii 52 (setting [8]) is over 128 µg/mL; in the experiment on P. aeruginosa 37 (setting [9]), 128 µg/mL (≈ 216 µM); in the experiment on P. aeruginosa 6065Y (setting [10]), 128 µg/mL (≈ 216 µM); in the experiment with K. pneumoniae 2011E (setting [11]), 1 µg/mL (≈ 1.69 µM); with E. cloacae β19 (setting [12]) it was 128 µg/mL (≈ 216 µM); in the experiment on P. aeruginosa 40 (setting [13]), 32 µg/mL (≈ 54.1 µM). Moreover, the MIC90 with P. aeruginosa 43 (P. aeruginosa 43, read-out: MIC90) worked out at 4 µg/mL (≈ 6.76 µM); in the experiment on A. baumannii 46 (setting [14]), 8 µg/mL (≈ 13.5 µM).
For `CC(C)(O/N=C(\C(=O)N[C@@H]1C(=O)N2C(C(=O)[O-])=C(C[n+]3cnc(N)c(NCCNC(=N)N)c3)CSC12)c1csc(N)n1)C(=O)O` (some centres unmarked) [Compound 40], the MIC90 was 8 µg/mL (≈ 12.1 µM) against K. pneumoniae β14 (Klebsiella pneumoniae); 4 µg/mL (≈ 6.04 µM) against E. coli AG100 (Escherichia coli, AG100); 0.25 µg/mL (≈ 0.377 µM) in experiment [1] (setting [15]); 4 µg/mL (≈ 6.04 µM) against P. aeruginosa 1912E (Pseudomonas aeruginosa, 1912E); 128 µg/mL (≈ 193 µM) with A. baumannii 49 (setting [16]); 8 µg/mL (≈ 12.1 µM) against E. coli β4 (Escherichia coli). In addition, the MIC90 against A. baumannii 52 (Acinetobacter baumannii, 52) was found to be 128 µg/mL (≈ 193 µM); against P. aeruginosa 37 (setting [17]), 8 µg/mL (≈ 12.1 µM); in the experiment on P. aeruginosa 6065Y (Pseudomonas aeruginosa, 6065Y) it was 16 µg/mL (≈ 24.1 µM); in the experiment with K. pneumoniae 2011E (Klebsiella pneumoniae, 2011E) it was 16 µg/mL (≈ 24.1 µM); against E. cloacae β19 (Enterobacter cloacae) it was 32 µg/mL (≈ 48.3 µM); against P. aeruginosa 40 (Pseudomonas aeruginosa, 40) it was 8 µg/mL (≈ 12.1 µM). Further, the values for the MIC90 in the experiment with P. aeruginosa 43 (43) and in the experiment on A. baumannii 46 (setting [18]) were 32 µg/mL (≈ 48.3 µM) and 2 µg/mL (≈ 3.02 µM), respectively.
Regarding `CC(C)(O/N=C(\C(=O)N[C@@H]1C(=O)N2C(C(=O)[O-])=C(C[n+]3cnc(N)c(NC(=O)CCN)c3)CSC12)c1csc(N)n1)C(=O)O` (some centres unmarked) [Compound 48], the MIC90 with K. pneumoniae β14 (Klebsiella pneumoniae) is 16 µg/mL (≈ 24.7 µM); against E. coli AG100 (Escherichia coli, AG100), 2 µg/mL (≈ 3.08 µM); in [1] (setting [15]), 0.5 µg/mL (≈ 0.771 µM); against P. aeruginosa 1912E (Pseudomonas aeruginosa, 1912E), 8 µg/mL (≈ 12.3 µM); in the experiment on A. baumannii 49 (setting [16]) it was 128 µg/mL (≈ 197 µM); in the experiment with E. coli β4 (Escherichia coli), 2 µg/mL (≈ 3.08 µM). Besides, the MIC90 in the experiment on A. baumannii 52 (Acinetobacter baumannii, 52) was 128 µg/mL (≈ 197 µM); in the experiment with P. aeruginosa 37 (setting [17]), 64 µg/mL (≈ 98.7 µM); in the experiment on P. aeruginosa 6065Y (Pseudomonas aeruginosa, 6065Y), 16 µg/mL (≈ 24.7 µM); in the experiment on K. pneumoniae 2011E (Klebsiella pneumoniae, 2011E) it was 4 µg/mL (≈ 6.17 µM); with E. cloacae β19 (Enterobacter cloacae), 128 µg/mL (≈ 197 µM); in the experiment on P. aeruginosa 40 (Pseudomonas aeruginosa, 40), 8 µg/mL (≈ 12.3 µM). In the experiment with A. baumannii 46 (setting [18]), the MIC90 is 8 µg/mL (≈ 12.3 µM).
Turning to `CC(C)(O/N=C(\C(=O)N[C@@H]1C(=O)N2C(C(=O)[O-])=C(C[n+]3cnc(N)c(NCCN)c3)CSC12)c1csc(N)n1)C(=O)O` (some centres unmarked) [Compound 49], the MIC90 in the experiment on K. pneumoniae β14 is 32 µg/mL (≈ 51.6 µM); against E. coli AG100 (E. coli AG100), 4 µg/mL (≈ 6.44 µM); in experiment [1] (A. calcoaceticus ATCC15473) it was 2 µg/mL (≈ 3.22 µM); in the experiment on P. aeruginosa 1912E, 2 µg/mL (≈ 3.22 µM); against A. baumannii 49 (A. baumannii 49), 64 µg/mL (≈ 103 µM); in the experiment on E. coli β4, 8 µg/mL (≈ 12.9 µM). Moreover, the MIC90 against A. baumannii 52 (A. baumannii 52) is 64 µg/mL (≈ 103 µM); against P. aeruginosa 37 (P. aeruginosa 37) it was 8 µg/mL (≈ 12.9 µM); with P. aeruginosa 6065Y it was 16 µg/mL (≈ 25.8 µM); against K. pneumoniae 2011E (K. pneumoniae 2011E), 8 µg/mL (≈ 12.9 µM); in the experiment on E. cloacae β19, 32 µg/mL (≈ 51.6 µM); in the experiment with P. aeruginosa 40 (P. aeruginosa 40), 4 µg/mL (≈ 6.44 µM). Besides, the MIC90 against P. aeruginosa 43 (43) was over 128 µg/mL; in the experiment on A. baumannii 46 (A. baumannii 46), 8 µg/mL (≈ 12.9 µM).
In the case of `CC(=O)Nc1c[n+](CC2=C(C(=O)[O-])N3C(=O)[C@@H](NC(=O)/C(=N\OC(C)(C)C(=O)O)c4csc(N)n4)C3SC2)cnc1N` (some centres unmarked) [Compound 68], the MIC90 was 32 µg/mL (≈ 51.6 µM) in the experiment on K. pneumoniae β14 (setting [2]); 0.5 µg/mL (≈ 0.807 µM) in the experiment on E. coli AG100 (setting [3]); 1 µg/mL (≈ 1.61 µM) in [1] (setting [4]); 4 µg/mL (≈ 6.46 µM) in the experiment with P. aeruginosa 1912E (setting [5]); 128 µg/mL (≈ 207 µM) in the experiment with A. baumannii 49 (setting [6]); 8 µg/mL (≈ 12.9 µM) with E. coli β4 (setting [7]). Moreover, the MIC90 in the experiment on A. baumannii 52 (setting [8]) came out at 128 µg/mL (≈ 207 µM); in the experiment on P. aeruginosa 37 (setting [9]), 128 µg/mL (≈ 207 µM); with P. aeruginosa 6065Y (setting [10]), 16 µg/mL (≈ 25.8 µM); in the experiment on K. pneumoniae 2011E (setting [11]), 1 µg/mL (≈ 1.61 µM); with E. cloacae β19 (setting [12]), 128 µg/mL (≈ 207 µM); in the experiment on P. aeruginosa 40 (setting [13]), 4 µg/mL (≈ 6.46 µM). The MIC90 in the experiment with A. baumannii 46 (setting [14]) amounted to 8 µg/mL (≈ 12.9 µM).
